# From article PMC12040169 (PLOS Biology, 2025)
# Assay: in vitro
# Conditions: human, hela cells, % viability
row,Compound,"viability at 28.5 h, 10 µM [%]"
1,CCn1cc(C(=O)O)c(=O)c2cnc(N3CCN(C(=S)NC(=O)c4cccs4)CC3)nc21 [CBK265753],95.7
2,COC(=O)c1ccc(NC(=O)c2ccccc2-c2ccccc2C(=O)O)cc1 [CBK265759],110
3,CCC(Sc1nc(N)cc(=O)[nH]1)C(=O)Nc1ccc2ccccc2c1 (stereo not drawn) [CBK265761],98.9
4,O=C(CSc1nnc(-c2ccco2)c(-c2ccco2)n1)Nc1ccccc1[N+](=O)[O-] [CBK265762],107
5,CN1CCN(NC(=O)c2cccc(COc3ccccc3Cl)c2)CC1 [CBK265765],99.2
6,O=C(Nc1ccc(Cc2ccc(O)c(NC(=O)c3ccccc3F)c2)cc1O)c1ccccc1F [CBK265766],85.4
7,COc1cccc(C(=O)Nc2ccccc2C(=O)Nc2cccc(C(=O)O)c2C)c1 [CBK265768],88.1
8,CN1CCN(C(=O)CN(Cc2ccc(Cl)cc2)S(=O)(=O)c2ccc(Br)cc2)CC1 [CBK265771],113
9,CCn1c(=O)[nH]c2cc(C(=O)NCCc3ccccc3)ccc2c1=O [CBK265773],95.2
10,O=c1[nH]c2ccc(Cl)cc2c(-c2ccccc2)c1N1CCN(Cc2ccc3c(c2)OCO3)CC1 [CBK265776],92.3
11,Cn1c(SCC(=O)Nc2ccc(N3CCOCC3)c(Cl)c2)nnc1-c1ccc(N)cc1 [CBK265777],102
12,CC(C)(C)CC(=O)O/N=C(\N)c1ccccn1 [CBK265779],105
13,COc1cccc(CNn2cnnc2S)c1OCc1ccccc1 [CBK265781],96.3
14,NC(=O)C1CCN(CC(=O)Nc2ccc([N+](=O)[O-])cc2C(=O)c2ccccc2)CC1 [CBK265782],89.3
15,Cc1ccccc1OCC(=O)NN1CCN(C)CC1 [CBK265783C],89
16,CN(C)CCCNc1cc(Cl)c(S(=O)(=O)N2CCCCC2)cc1C(=O)O [CBK265784],95.5
17,CCC(Sc1nnc(-c2ccc([N+](=O)[O-])cc2)n1C)C(=O)Nc1ccc(Cl)cc1 (stereo not drawn) [CBK265785],101
18,C/C(=C(/C(=O)N(N)c1nc2ccccc2s1)C(=O)C(F)(F)F)N1CCC(C(N)=O)(N2CCCCC2)CC1 [CBK265787],101
19,COc1ccccc1NC(=O)c1sc2ncn(CC(=O)NC3CCCCC3)c(=O)c2c1C [CBK265788],98.5
20,Cc1ccc(-c2nc3ccccc3[nH]2)cc1NC(=O)CCCc1ccccc1 [CBK265789],92.9
21,O=C(Nc1ccc2c(c1)OCCO2)c1cc(S(=O)(=O)N2CCCCC2)c(Cl)cc1Cl [CBK265790],90

row,Compound,"viability at 28.5 h, 10 µM [%]"
1,CN(CC(=O)N1CCN(Cc2ccc3c(c2)OCO3)CC1)S(=O)(=O)c1ccccc1 [CBK265791],87
2,CC1=CCC(C(=O)O)C(C(=O)Nc2ccccc2NC(=O)c2ccc(C(F)(F)F)cc2)C1 (stereo not drawn) [CBK265794],99.9
3,Cc1nn(Cc2ccc(C(=O)N3CCN(Cc4ccccc4)CC3)o2)c(C)c1Br [CBK265796C],88.8
4,CCC1C=CCC(C(=O)O)C1C(=O)Nc1ccc(C(=O)N2CCOCC2)cc1 (stereo not drawn) [CBK265798],102
5,O=C(CN1CCN(c2ccccc2)CC1)Nc1ccc([N+](=O)[O-])cc1C(=O)c1ccccc1 [CBK265799],89.6
6,O=C(CN(Cc1ccc(Cl)cc1Cl)S(=O)(=O)c1ccccc1)Nc1c(F)cccc1F [CBK265801],99.1
7,CC(=O)Nc1ccc(Nc2ncnc3c2cnn3-c2ccc(C)cc2C)cc1 [CBK265803],116
8,COC(Cc1nc2ccccc2s1)C(=O)O (stereo not drawn) [CBK265806],101
9,O=c1c(-c2ccccc2)c(C(F)(F)F)oc2c(CN3CCN(Cc4ccccc4)CC3)c(O)ccc12 [CBK265808],95
10,Cc1ccc(N(C(=O)COc2ccc(C(C)(C)C)cc2)C2C=CS(=O)(=O)C2)cc1 (stereo not drawn) [CBK265811],105
11,O=C(NC(=S)Nc1ccc(-c2nc3ncccc3o2)cc1)c1ccc2c(c1)OCCO2 [CBK265812],96.4
12,Cc1ccc(CN(CC(=O)N2CCC(C(N)=O)CC2)S(=O)(=O)c2ccc(Br)cc2)cc1 [CBK265813],102
13,CCN1CCN(c2ncnc3c2cnn3-c2cccc(C)c2)CC1 [CBK265814],93.8
14,COc1ccc(Cc2nnc(SCC(=O)Nc3ccc(Br)c(C)c3)n2C)cc1 [CBK265816],83.9
15,NS(=O)(=O)c1ccc(NC(=S)NCCN2CCOCC2)cc1 [CBK265818],107
16,CCC(=O)c1cccc2c1NC=C1C(=O)CC(C)(C)CC1=N2 [CBK265821],108
17,CC(=O)Nc1ccc(-c2nnc(SCc3c(Cl)cccc3[N+](=O)[O-])n2C)cc1 [CBK265823],89.1
18,CCOc1cccc(CNn2cnnc2)c1OCc1ccccc1 [CBK265824],81.2
19,CCSc1nc2ccccc2n1C(=O)c1ccc(S(=O)(=O)N2CCCCCC2)cc1 [CBK265825],91.6
20,CCn1ncc(Br)c1C(=O)Nc1ccc(Cl)cn1 [CBK265826],94.8
21,O=C(CN1CCN(c2ccccc2)CC1)Nc1ccc(Cl)cc1C(=O)c1ccccc1 [CBK265827],107

row,Compound,"viability at 28.5 h, 10 µM [%]"
1,C/C(O)=C1/C(=O)N(c2nc3ccccc3s2)N=C1CC(=O)O [CBK265828],90.5
2,Cc1ccccc1OCc1nnc(SCC(=O)c2ccc3c(c2)Cc2ccccc2-3)n1C [CBK265829],93.9
3,COC(=O)C1C(=O)NC(SCC(=O)Nc2cccc(Cl)c2C)=C(C#N)C1c1ccccc1F (stereo not drawn) [CBK265830],94.9
4,Cc1ccc(C(C)C)c(OCc2ccc(C(=O)Nc3ccc(S(N)(=O)=O)cc3C)o2)c1 [CBK265833],96.3
5,CCOC(=O)c1cnc2ccc(F)cc2c1NCc1ccco1 [CBK265834],97
6,CCn1nccc1C(=O)NC1=C(C#N)CCC1 [CBK265836],97.6
7,CCCC(=O)Nc1ccccc1NC(=O)c1ccc2c(c1)OCO2 [CBK265841],103
8,COc1ccccc1NC(=O)c1ccc(OCC(=O)O)cc1 [CBK265849],100
9,NCCc1c[nH]c2ccc(OCC(=O)O)cc12 [CBK265853C],86.2
10,Cn1c(Cc2cccc3ccccc23)nnc1SCC(=O)Nc1ccccc1F [CBK265856],85
11,Cc1ccc2nc(-c3ccc(NC(=O)CSc4nc(-c5ccccc5)cc(=O)[nH]4)cc3)sc2c1 [CBK265861],78.5
12,O=C(CN1CCN(Cc2ccc3c(c2)OCO3)CC1)Nc1ccc(Oc2ccccc2)cc1 [CBK265864],94
13,CCOc1ccc(-c2nc(C#N)c(NCCN3CCOCC3)o2)cc1 [CBK265867],112
14,N#Cc1ccccc1CSc1nc2ccc(NC(=O)c3ccc([N+](=O)[O-])cc3)cc2s1 [CBK265868],90.7
15,Cc1ccc(-c2ccc(CCC(=O)O)n2N=C(N)S)cc1 [CBK265870],91
16,NC(=O)c1c(NC(=O)c2ccc(COc3ccc4ccccc4c3)o2)sc2c1CCCC2 [CBK265871],88.5
17,COc1ccc(OC)c(NC(=O)CSc2nnc(-c3ccc(N)cc3)n2C)c1 [CBK265872],106
18,Cc1cc(NC(=O)CCCN2C(=O)c3cccc4cccc(c34)C2=O)n(-c2ccccc2)n1 [CBK265874],109
19,Cc1ccc(S(=O)(=O)NC2c3cccc4cccc(c34)C2Sc2n[nH]c(N)n2)cc1 (stereo not drawn) [CBK265875],77.6
20,O=c1c2ccccc2nc(/C=C/c2cccnc2)n1Cc1ccccc1 [CBK265876],106
21,CN(C)CCNC(=O)c1ccc(COc2ccc(Cl)cc2Cl)cc1 [CBK265878],90.9

row,Compound,"viability at 28.5 h, 10 µM [%]"
1,N#Cc1nc(-c2ccccc2F)oc1NCCCN1CCOCC1 [CBK265881],107
2,CN(C)S(=O)(=O)c1cc(C(=O)NCCc2c[nH]c3ccccc23)c(Cl)cc1Cl [CBK265883],87.5
3,Cc1ccc(S(=O)(=O)NC2c3cccc4cccc(c34)C2Sc2nnnn2-c2ccccc2)cc1 (stereo not drawn) [CBK265884],93.1
4,O=C(c1cccc(S(=O)(=O)N2CCOCC2)c1)N(Cc1ccc(F)cc1)Cc1ccco1 [CBK265885],92.8
5,OCCN1CCN(C(S)=NC2CCCC2)CC1 [CBK265886],91.6
6,Cc1ccc([N+](=O)[O-])cc1NC(=O)CSc1nnc(Cc2ccccc2)o1 [CBK265889],116
7,CC1=CCC(C(=O)O)C(C(=O)Nc2cccnc2)C1 (stereo not drawn) [CBK265895],92.9
8,NC(=O)C1(N2CCCCC2)CCN(C(=S)Nc2ccc(S(N)(=O)=O)cc2)CC1 [CBK265900],90.5
9,Cc1cccc(-n2c(SCC(=O)Nc3ccc(Br)cc3F)nnc2-c2ccccc2)c1 [CBK265903],98.9
10,CN(C)S(=O)(=O)N(CC(=O)Nc1cccc([N+](=O)[O-])c1)c1ccccc1 [CBK265904],90.2
11,Cn1c(SCC(=O)Nc2ccc(Br)cc2C(F)(F)F)nnc1-c1ccncc1 [CBK265905],84.4
12,Cc1ccc(C)c(Oc2coc3cc(OCC(=O)Nc4ccccc4C(C)C)ccc3c2=O)c1 [CBK265906],113
13,Cc1sc2ncnc(NCCOCCO)c2c1C [CBK265907],104
14,CC1CCc2c(sc(NC(=O)c3ccccc3)c2CN2CCCC2)C1 (stereo not drawn) [CBK265908],98.7
15,Cc1ccc(-n2c(SCC(=O)NCc3ccccc3)nnc2-c2ccc(Cl)cc2)cc1C [CBK265909],97.9
16,CC(C)c1ccc(OCC(=O)NCc2ccccn2)c(Br)c1 [CBK265910],99.2
17,COc1ccc([N+](=O)[O-])cc1Nc1nc(-c2ccccc2)nc2ccccc12 [CBK265913],95.4
18,O=S(=O)(NCC1CCCO1)c1ccc2oc3ccc(S(=O)(=O)NCC4CCCO4)cc3c2c1 (stereo not drawn) [CBK265914],96.2
19,COc1ccc(C(=O)Nc2ccc3c(c2)C(=O)N(CCC(=O)O)C3=O)cc1 [CBK265921],93.1
20,Cc1ccc(-c2noc(CN3CCN(c4ccccc4)CC3)n2)cc1 [CBK265924],101
21,Cc1cc2nnc(SCC(=O)Nc3ccc4c(c3)OCO4)n2c2ccccc12 [CBK265926],82.8
